US20220105188A1, “TARGET PROTEIN EED DEGRADATION-INDUCING DEGRADUCER, PREPARATION METHOD THEREOF, AND PHARMACEUTICAL COMPOSITION FOR PREVENTING OR TREATING DISEASES RELATED TO EED, EZH2, OR PRC2, COMPRISING SAME AS ACTIVE INGREDIENT” (KOREA RESEARCH INSTITUTE OF CHEMICAL TECHNOLOGY, priority 2019, published 2022)

Molecular target: T1, EED (Homo sapiens, UniProt O75530)
T1 construct: 2×10^5 Hela cells were injected into a 12-well plate; endogenous in cells; host or cells: HeLa
Assay: EED Proteolytic Activity Evaluation 2 (western blot, Hela cells)
Format: cell-based
Conditions: 1 nM, 10 nM, 100 nM and 1000 nM, 20 hours of treatment
Description: [Experiment 2] EED Proteolytic Activity Evaluation 2
In order to evaluate the EED proteolytic activity of the compound according to the present invention, an experiment was conducted as follows.
Specifically, 2×10^5 Hela cells were injected into a 12-well plate, and after 8 hours of stabilization, each well was treated with the example compounds to have final concentrations of 1 nM, 10 nM, 100 nM, and 1000 nM. One well was treated with the volume of DMSO contained in the sample corresponding to the highest concentration in the experimental group. After 20 hours of treatment, the cells were collected and lysed using 80 μl of SDS Lysis buffer (50 mM Tris pH8.0, 1% SDS, 1 mM EDTA, 0.5 mM PMSF, and protease inhibitor cocktail) and then sonication (30 sec on/59 sec off), 5 cycles) to prepare a cell lysate, followed by protein quantification through BCA, followed by Western blot, and the results are shown in Table 3. (Maximum EED degradation rate: A: >50%, B: 25-50%, C: <25%)

T1 sequence (O75530 whole entry): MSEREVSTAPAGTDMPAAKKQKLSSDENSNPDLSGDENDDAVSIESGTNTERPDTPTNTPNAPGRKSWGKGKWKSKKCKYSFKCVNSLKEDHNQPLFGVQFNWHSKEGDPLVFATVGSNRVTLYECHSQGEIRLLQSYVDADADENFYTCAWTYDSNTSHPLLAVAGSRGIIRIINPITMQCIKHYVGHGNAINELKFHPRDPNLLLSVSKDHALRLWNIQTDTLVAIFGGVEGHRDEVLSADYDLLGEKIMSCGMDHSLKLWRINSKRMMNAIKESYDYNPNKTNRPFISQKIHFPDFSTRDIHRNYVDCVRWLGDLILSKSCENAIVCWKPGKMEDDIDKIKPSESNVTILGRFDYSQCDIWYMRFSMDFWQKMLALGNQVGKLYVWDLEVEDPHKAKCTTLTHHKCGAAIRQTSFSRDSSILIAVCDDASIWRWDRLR

SMILES | EED degradation rate (Maximum EED degradation rate)
Cc1cccc(F)c1CN1C[C@H](c2ccc(N3CCN(CC4CCN(CC5CCN(c6ccc7c(c6)C(=O)N(C6CCC(=O)NC6=O)C7=O)CC5)CC4)CC3)cc2)[C@@H](N(C)C)C1 (stereo partly drawn) [Example 134, 5-(4-((4-((4-(4-((3S,4R)-4-(dimethylamino)-1-(2-fluoro-6-methylbenzyl)pyrrolidin-3-yl)phenyl)piperazin-1-yl)methyl)piperidin-1-yl)methyl)piperidin-1-yl)-2-(2,6-dioxopiperidin-3-yl)isoindolin-1,3-dione] | B (B: 25-50%)
Cc1cccc(F)c1CN1C[C@H](c2ccc(N3CCN(CCOCCOCCOCCNC(=O)CNc4ccc5c(c4)C(=O)N(C4CCC(=O)NC4=O)C5=O)CC3)cc2)[C@@H](N(C)C)C1 (stereo partly drawn) [Example 135, N-(2-(2-(2-(2-(4-(4-((3S,4R)-4-(dimethylamino)-1-(2-fluoro-6-methylbenzyl)pyrrolidin-3-yl)phenyl)piperazin-1-yl)ethoxy)ethoxy)ethoxy)ethyl)-2-((2-(2,6-dioxopiperidin-3-yl)-1,3-dioxoisoindolin-5-yl)amino)acetamide] | B (B: 25-50%)
Cc1cccc(F)c1CN1C[C@H](c2ccc(N3CCN(CCC4CCN(C(=O)CNc5ccc6c(c5)C(=O)N(C5CCC(=O)NC5=O)C6=O)CC4)CC3)cc2)[C@@H](N(C)C)C1 (stereo partly drawn) [Example 136, 5-((2-(4-(2-(4-(4-((3S,4R)-4-(dimethylamino)-1-(2-fluoro-6-methylbenzyl)pyrrolidin-3-yl)phenyl)piperazin-1-yl)ethyl)piperidin-1-yl)-2-oxoethyl)amino)-2-(2,6-dioxopiperidin-3-yl)isoindolin-1,3-dione] | A (A: >50%)
Cc1cccc(F)c1CN1C[C@H](c2ccc(N3CCN(C(=O)CCCCCNc4ccc5c(c4)C(=O)N(C4CCC(=O)NC4=O)C5=O)CC3)cc2)[C@@H](N(C)C)C1 (stereo partly drawn) [Example 138, 5-((6-(4-(4-((3S,4R)-4-(dimethylamino)-1-(2-fluoro-6-methylbenzyl)pyrrolidin-3-yl)phenyl)piperazin-1-yl)-6-oxohexyl)amino)-2-(2,6-dioxopiperidin-3-yl)isoindolin-1,3-dione] | B (B: 25-50%)
Cc1cccc(F)c1CN1C[C@H](c2ccc(N3CCN(CC4CCN(c5cccc6c5C(=O)N(C5CCC(=O)NC5=O)C6=O)CC4)CC3)cc2)[C@@H](N(C)C)C1 (stereo partly drawn) [Example 139, 4-(4-((4-(4-((3S,4R)-4-(dimethylamino)-1-(2-fluoro-6-methylbenzyl)pyrrolidin-3-yl)phenyl)piperazin-1-yl)methyl)piperidin-1-yl)-2-(2,6-dioxopiperidin-3-yl)isoindolin-1,3-dione] | C (C: <25%)
Cc1cccc(F)c1CN1C[C@H](c2ccc(N3CCN(C(=O)CCC4CCN(C(=O)CNc5ccc6c(c5)C(=O)N(C5CCC(=O)NC5=O)C6=O)CC4)CC3)cc2)[C@@H](N(C)C)C1 (stereo partly drawn) [Example 140, 5-((2-(4-(3-(4-(4-((3S,4R)-4-(dimethylamino)-1-(2-fluoro-6-methylbenzyl)pyrrolidin-3-yl)phenyl)piperazin-1-yl)-3-oxopropyl)piperidin-1-yl)-2-oxoethyl)amino)-2-(2,6-dioxopiperidin-3-yl)isoindolin-1,3-dione] | A (A: >50%)
Cc1cccc(F)c1CN1C[C@H](c2ccc(N3CCN(C(=O)CCC4CCN(c5cccc6c5C(=O)N(C5CCC(=O)NC5=O)C6=O)CC4)CC3)cc2)[C@@H](N(C)C)C1 (stereo partly drawn) [Example 141, 4-(4-(3-(4-(4-((3S,4R)-4-(dimethylamino)-1-(2-fluoro-6-methylbenzyl)pyrrolidin-3-yl)phenyl)piperazin-1-yl)-3-oxopropyl)piperidin-1-yl)-2-(2,6-dioxopiperidin-3-yl)isoindolin-1,3-dione] | B (B: 25-50%)
Cc1cccc(F)c1CN1C[C@H](c2ccc(N3CCN(C(=O)CC4CCN(c5cccc6c5C(=O)N(C5CCC(=O)NC5=O)C6=O)CC4)CC3)cc2)[C@@H](N(C)C)C1 (stereo partly drawn) [Example 142, 4-(4-(2-(4-(4-((3S,4R)-4-(dimethylamino)-1-(2-fluoro-6-methylbenzyl)pyrrolidin-3-yl)phenyl)piperazin-1-yl)-2-oxoethyl)piperidin-1-yl)-2-(2,6-dioxopiperidin-3-yl)isoindolin-1,3-dione] | C (C: <25%)
Cc1cccc(F)c1CN1C[C@H](c2ccc(N3CCN(C(=O)CC4CCN(C(=O)COc5cccc6c5C(=O)N(C5CCC(=O)NC5=O)C6=O)CC4)CC3)cc2)[C@@H](N(C)C)C1 (stereo partly drawn) [Example 143, 4-(2-(4-(2-(4-(4-((3S,4R)-4-(dimethylamino)-1-(2-fluoro-6-methylbenzyl)pyrrolidin-3-yl)phenyl)piperazin-1-yl)-2-oxoethyl)piperidin-1-yl)-2-oxoethoxy)-2-(2,6-dioxopiperidin-3-yl)isoindolin-1,3-dione] | A (A: >50%)
Cc1cccc(F)c1CN1C[C@H](c2ccc(N3CCN(C(=O)CC4CCN(C(=O)CNc5cccc6c5C(=O)N(C5CCC(=O)NC5=O)C6=O)CC4)CC3)cc2)[C@@H](N(C)C)C1 (stereo partly drawn) [Example 144, 4-((2-(4-(2-(4-(4-((3S,4R)-4-(dimethylamino)-1-(2-fluoro-6-methylbenzyl)pyrrolidin-3-yl)phenyl)piperazin-1-yl)-2-oxoethyl)piperidin-1-yl)-2-oxoethyl)amino)-2-(2,6-dioxopiperidin-3-yl)isoindolin-1,3-dione] | A (A: >50%)
Cc1cccc(F)c1CN1C[C@H](c2ccc(N3CCN(C(=O)CC4CCN(C(=O)COc5ccc6c(c5)C(=O)N(C5CCC(=O)NC5=O)C6=O)CC4)CC3)cc2)[C@@H](N(C)C)C1 (stereo partly drawn) [Example 145, 5-(2-(4-(2-(4-(4-((3S,4R)-4-(dimethylamino)-1-(2-fluoro-6-methylbenzyl)pyrrolidin-3-yl)phenyl)piperazin-1-yl)-2-oxoethyl)piperidin-1-yl)-2-oxoethoxy)-2-(2,6-dioxopiperidin-3-yl)isoindolin-1,3-dione] | B (B: 25-50%)
Cc1cccc(F)c1CN1C[C@H](c2ccc(N3CCN(C(=O)CC4CCN(C(=O)CNc5ccc6c(c5)C(=O)N(C5CCC(=O)NC5=O)C6=O)CC4)CC3)cc2)[C@@H](N(C)C)C1 (stereo partly drawn) [Example 146, 5-((2-(4-(2-(4-(4-((3S,4R)-4-(dimethylamino)-1-(2-fluoro-6-methylbenzyl)pyrrolidin-3-yl)phenyl)piperazin-1-yl)-2-oxoethyl)piperidin-1-yl)-2-oxoethyl)amino)-2-(2,6-dioxopiperidin-3-yl)isoindolin-1,3-dione] | A (A: >50%)
Cc1cccc(F)c1CN1C[C@H](c2ccc(N3CCN(C(=O)CCC4CCN(C(=O)COc5ccc6c(c5)C(=O)N(C5CCC(=O)NC5=O)C6=O)CC4)CC3)cc2)[C@@H](N(C)C)C1 (stereo partly drawn) [Example 147, 5-(2-(4-(3-(4-(4-((3S,4R)-4-(dimethylamino)-1-(2-fluoro-6-methylbenzyl)pyrrolidin-3-yl)phenyl)piperazin-1-yl)-3-oxopropyl)piperidin-1-yl)-2-oxoethoxy)-2-(2,6-dioxopiperidin-3-yl)isoindolin-1,3-dione] | B (B: 25-50%)
